Among the data in patent publication US7678787B2, “Pyrrolobenzodiazepine pyridine carboxamides and derivatives as follicle-stimulating hormone receptor antagonists” (Wyeth, priority 2005, dated 2010) are melting point and IC50 values, retold here.

Tested on in the first series: not given
Test: not given
Conditions: not given
`O=C(NCc1cccnc1)c1ccc2n1Cc1ccccc1N(C(=O)c1ccccc1)C2` [Example 76] registered a melting point of 197 °C.

The target in another series is T1, human FSH receptor (Homo sapiens, UniProt P23945).
T1 construct: host or cells: CHO-K1 (CHO FSH-R 6CRE-Luc, 1D7 cells)
T1 sequence (P23945 18-695): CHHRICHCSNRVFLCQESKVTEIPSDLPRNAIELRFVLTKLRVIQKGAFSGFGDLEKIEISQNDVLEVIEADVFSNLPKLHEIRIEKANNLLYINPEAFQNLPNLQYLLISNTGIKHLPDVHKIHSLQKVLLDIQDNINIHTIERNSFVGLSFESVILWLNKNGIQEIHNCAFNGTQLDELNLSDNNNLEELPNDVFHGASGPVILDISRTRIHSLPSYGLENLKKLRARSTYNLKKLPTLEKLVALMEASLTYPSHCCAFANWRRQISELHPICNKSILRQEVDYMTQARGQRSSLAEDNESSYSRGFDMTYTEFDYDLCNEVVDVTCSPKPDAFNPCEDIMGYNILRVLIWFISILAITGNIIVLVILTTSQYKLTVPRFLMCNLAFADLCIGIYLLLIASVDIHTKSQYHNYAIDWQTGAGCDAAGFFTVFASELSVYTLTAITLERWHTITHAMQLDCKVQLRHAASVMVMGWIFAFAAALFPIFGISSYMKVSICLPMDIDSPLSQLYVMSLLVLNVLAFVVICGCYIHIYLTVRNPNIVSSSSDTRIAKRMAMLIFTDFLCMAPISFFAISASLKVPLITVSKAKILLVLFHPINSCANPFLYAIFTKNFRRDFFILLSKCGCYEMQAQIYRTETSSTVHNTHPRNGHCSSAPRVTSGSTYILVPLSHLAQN
The experiment in a line: FSH receptor-dependent CRE-luciferase reporter gene assay (CHO FSH-R 6CRE-Luc cells). The series is classed as cell-based. Particulars: dose-response format in presence of EC50 of purified human FSH; * n=3, ** n=2 averages. An excerpt: FOLLICLE-STIMULATING HORMONE RECEPTOR-DEPENDENT CRE-LUCIFERASE REPORTER GENE ASSAY FOR THE IDENTIFICATION OF FOLLICLE-STIMULATING HORMONE (FSH) ANTAGONISTS
A Chinese hamster ovarian cell line that stably produces the human FSH receptor and a luciferase reporter gene regulated by cAMP response elements was used to identify and determine the relative potencies of human FSH receptor antagonists. See for example, Kelton, C. A., et al. Mol. Cell. Endocrinol. 89:141-151 (1992), Tilly, J. L., et al. Endocrinology 131:799-806(1992), and George, S. E., et al. J. Biomol. Screening 2:235-240 (1997).
Compound Vehicle: Stock compounds were solubilized in an appropriate vehicle, e.g., phosphate buffered saline (PBS) or dimethyl sulfoxide (DMSO), at 30 mM. The compounds subsequently were diluted in DMSO to working dilutions of 1 and 20 or 30 mM for 2-dose testing format and 1 μM-10 mM for dose-response format. The DMSO dilutions were diluted 500-fold in sterile growth medium [D-MEM/F-12 (GIBCO/BRL; Grand Island, N.Y.) containing 15 mM HEPES, 2 mM l-glutamine, pyridoxine hydrochloride, phenol red and 5% FETALCLONE® II (HyClone Laboratories, Inc; Logan, Utah), 0.2% DMSO, 100 units penicillin G/ml, and 100 μg streptomycin sulfate/ml (GIBCO/BRL)]. The concentration of the vehicle in each of the compound dilutions was the same.
Positive Controls: Purified human FSH (>98%) was purchased from Cortex Biochem, Inc. (San Leandro, Calif.) and 3-[(2S*,5R*)-5-{[2-(1H-Indol-3-yl)-ethylcarbamoyl]-methyl}-4-oxo-2-(5-phenylethynyl-thiophen-2-yl)-thiazolidin-3-yl]-benzamide (an FSH-R thiazolidinone antagonist) was prepared by processes described by R. A. Scheuerman et al. in U.S. Pat. No. 6,426,357 (Affymax).
The CHO FSH-R 6CRE-Luc cells (1D7 cells) were obtained from Affymax (Palo Alto, Calif.). These Chinese hamster ovary cells (CHO-K1) were engineered genetically to stably express the recombinant human FSH receptor gene and a luciferase reporter gene under the regulation of 6 copies of a cAMP response element. The cells were plated one day prior to treatment into 96-well white opaque plates at a density of 50,000 cells/100 μl/well in growth medium. On the day of treatment, the growth medium was removed from the wells by aspiration and 50 μl of fresh growth medium was added to each well. The cells were incubated at 37° C. in a humidified incubator with 5% CO2/95% air.
The treated cells were incubated for 4 hours at 37° C. in a humidified incubator with 5% CO2/95% air. At the end of the incubation period, luciferase activity was measured by chemiluminescence using a commercially available kit (LucScreen, Tropix, Inc., Bedford, Mass.) according to the manufacturer's specifications, except that Buffer 1 and Buffer 2 were mixed together in equal proportion prior to the addition of 100 μl of the combined reagents to each well. Chemiluminescence was detected using a luminometer (EG & G Berthold Microlumat LB 96 P, Wallac, Gaithersburg, Md.) with chemiluminescence measured for 1 sec/well. Background luminescence was measured for each well prior to the addition of the LucScreen reagent.
In the 96-well 2-dose format, each compound was tested in duplicate at each dose. […] One plate was used to test a maximum of 22 compounds.
The EC50 of purified human FSH alone was tested in triplicate with each test compound. The doses chosen to test each compound were extrapolated from the initial 2-dose screening process. Along with the test compounds, purified human FSH also was tested in a dose response (0.03, 0.1, 0.3, 1, 3, 10, and 30 ng/ml) for a positive control and quality control. One plate was used for 3 test compounds and the FSH positive control.
Luciferase activity is expressed as relative light units/sec/well. Luciferase activity in antagonist was compared to the appropriate negative and positive controls. For 2-dose testing, results are reported as luciferase activity and are expressed as percent inhibition of the response obtained from the EC50 of FSH.
For `O=C(NCc1cccnc1)c1ccc2n1Cc1ccccc1N(C(=O)c1ccc(NCCc3ccccc3)nc1)C2` [Example 126], the IC50 was 18.7 µM.

As for `CC(=O)c1ccc(-c2ccc(C(=O)N3Cc4ccc(C(=O)NCc5cccnc5)n4Cc4ccccc43)cc2C)cc1` [Example 26], the 50% inhibitory concentration (IC50) was > 30 µM.

For `O=C(NCc1cccnc1)c1ccc2n1Cc1ccccc1N(C(=O)c1ccc(C(F)(F)F)cc1)C2` [Example 79], the IC50 was determined as 17.8 µM.

Regarding `Cc1ccccc1-c1cccc(C(=O)N2Cc3ccc(C(=O)NCc4cccnc4)n3Cc3ccccc32)c1` [Example 27], the IC50 was determined as 22.7 µM.

As to `O=C(NCc1cccnc1)c1ccc2n1Cc1ccccc1N(C(=O)c1ccc(NCc3cccnc3)nc1)C2` [Example 131], the IC50 is 15.8 µM.

Regarding `CCN(CC)C(=O)Cc1ccccc1-c1ccc(C(=O)N2Cc3ccc(C(=O)NCc4cccnc4)n3Cc3ccccc32)cc1` [Example 67], the IC50 amounted to 29.1 µM.

As for `O=C(NCc1cccnc1)c1ccc2n1Cc1ccccc1N(C(=O)c1cccc(C(F)(F)F)c1)C2` [Example 92], the IC50 is 9.9 µM.

For the molecule `CCCCNc1ccc(C(=O)N2Cc3ccc(C(=O)NCc4cccnc4)n3Cc3ccccc32)cn1` [Example 133], the IC50 stood at 14.5 µM.

In the case of `Cc1ccc(C(=O)N2Cc3ccc(C(=O)NCc4cccnc4)n3Cc3ccccc32)cc1` [Example 77], the half-inhibitory concentration (IC50) was found to be 18.8 µM.

For `Cc1cccc(C(=O)N2Cc3ccc(C(=O)NCc4cccnc4)n3Cc3ccccc32)c1` [Example 83], the 50% inhibitory concentration (IC50) was determined as 16.6 µM.

Turning to `O=C(NCc1cccnc1)c1ccc2n1Cc1ccccc1N(C(=O)c1ccccn1)C2` [Example 116], the IC50 is > 30 µM.

As to `NS(=O)(=O)c1cc(C(=O)N2Cc3ccc(C(=O)NCc4cccnc4)n3Cc3ccccc32)ccc1N1CCOCC1` [Example 114, 10-[3-(AMINOSULFONYL)-4-MORPHOLIN-4-YLBENZOYL]-N-(PYRIDIN-3-YLMETHYL)-10,11-DIHYDRO-5H-PYRROLO[2,1-C][1,4]BENZODIAZEPINE-3-CARBOXAMIDE HEMIHYDRATE], the half-maximal inhibitory concentration (IC50) was > 30 µM.

For the molecule `O=C(NCc1cccnc1)c1ccc2n1Cc1ccccc1N(C(=O)c1ccc(F)c(F)c1)C2` [Example 100], the IC50 amounted to 31.5 µM.

`O=C(NCc1cccnc1)c1ccc2n1Cc1ccccc1N(C(=O)c1cc(Cl)sc1Cl)C2` [Example 118]: the IC50 came to 27.7 µM.

In the case of `O=C(NCc1cccnc1)c1ccc2n1Cc1ccccc1N(C(=O)c1ccc3ccccc3c1)C2` [Example 146], the IC50 stood at 11.3 µM.

Consider `O=C(O)Cc1ccccc1-c1ccc(C(=O)N2Cc3ccc(C(=O)NCc4cccnc4)n3Cc3ccccc32)cc1` [Example 35, (4′-{[3-{[(PYRIDIN-3-YLMETHYL)AMINO]CARBONYL}-5H-PYRROLO[2,1-C][1,4]BENZODIAZEPIN-10(11H)-YL]CARBONYL}-1,1′-BIPHENYL-2-YL)ACETIC ACID], for which the IC50 is 31 µM.

Regarding `COc1ccccc1CNc1ccc(C(=O)N2Cc3ccc(C(=O)NCc4cccnc4)n3Cc3ccccc32)cn1` [Example 120], the IC50 was 49.6 µM.

Regarding `Cc1ccc(-c2ccc(C(=O)N3Cc4ccc(C(=O)NCc5cccnc5)n4Cc4ccccc43)cc2C)cc1` [Example 22], the IC50 was determined as 15 µM.

For `COc1ccccc1-c1ccc(C(=O)N2Cc3ccc(C(=O)NCC(c4cccnc4)N4CCCC4)n3Cc3ccccc32)cc1` (stereo not drawn) [Example 9, 10-[(2′-METHOXY-1,1′-BIPHENYL-4-YL)CARBONYL]-N-(2-PYRIDIN-3-YL-2-PYRROLIDIN-1-YLETHYL)-10,11-DIHYDRO-5H-PYRROLO[2,1-C][1,4]BENZODIAZEPINE-3-CARBOXAMIDE], the IC50 was found to be 17 µM.

In the case of `O=C(NCc1cccnc1)c1ccc2n1Cc1ccccc1N(C(=O)c1ccc(Oc3ccccc3)cc1)C2` [Example 101], the IC50 was determined as 12 µM.
